Reference: ChEMBL document CHEMBL1201862, “PubChem BioAssay data set” (2004)
Activity calls are given as the source filed them.

Assays:
Caspase-3 = target: T1, Caspase-3 (Homo sapiens, UniProt P42574); format: functional;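 also: Dose-response selectivity test against caspase-3 for candidate inhibitors of sentrin-specific proteases (SENPs)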
T1 sequence (P42574 whole entry): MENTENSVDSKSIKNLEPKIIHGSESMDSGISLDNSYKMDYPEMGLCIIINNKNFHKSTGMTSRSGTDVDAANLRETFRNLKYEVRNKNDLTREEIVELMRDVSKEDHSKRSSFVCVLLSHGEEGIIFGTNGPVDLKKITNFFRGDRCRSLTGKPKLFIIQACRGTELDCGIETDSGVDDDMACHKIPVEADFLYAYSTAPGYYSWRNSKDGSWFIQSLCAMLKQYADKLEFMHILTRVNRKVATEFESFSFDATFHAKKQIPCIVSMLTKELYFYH

[1] = target: T2, Sentrin-specific protease 7 (Homo sapiens, UniProt Q9BQF6); format: functional;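 also: Luminescence-based dose-response confirmation of ultra-high-throughput screening hits, measuring inhibition of SENP7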
T2 sequence (Q9BQF6 whole entry): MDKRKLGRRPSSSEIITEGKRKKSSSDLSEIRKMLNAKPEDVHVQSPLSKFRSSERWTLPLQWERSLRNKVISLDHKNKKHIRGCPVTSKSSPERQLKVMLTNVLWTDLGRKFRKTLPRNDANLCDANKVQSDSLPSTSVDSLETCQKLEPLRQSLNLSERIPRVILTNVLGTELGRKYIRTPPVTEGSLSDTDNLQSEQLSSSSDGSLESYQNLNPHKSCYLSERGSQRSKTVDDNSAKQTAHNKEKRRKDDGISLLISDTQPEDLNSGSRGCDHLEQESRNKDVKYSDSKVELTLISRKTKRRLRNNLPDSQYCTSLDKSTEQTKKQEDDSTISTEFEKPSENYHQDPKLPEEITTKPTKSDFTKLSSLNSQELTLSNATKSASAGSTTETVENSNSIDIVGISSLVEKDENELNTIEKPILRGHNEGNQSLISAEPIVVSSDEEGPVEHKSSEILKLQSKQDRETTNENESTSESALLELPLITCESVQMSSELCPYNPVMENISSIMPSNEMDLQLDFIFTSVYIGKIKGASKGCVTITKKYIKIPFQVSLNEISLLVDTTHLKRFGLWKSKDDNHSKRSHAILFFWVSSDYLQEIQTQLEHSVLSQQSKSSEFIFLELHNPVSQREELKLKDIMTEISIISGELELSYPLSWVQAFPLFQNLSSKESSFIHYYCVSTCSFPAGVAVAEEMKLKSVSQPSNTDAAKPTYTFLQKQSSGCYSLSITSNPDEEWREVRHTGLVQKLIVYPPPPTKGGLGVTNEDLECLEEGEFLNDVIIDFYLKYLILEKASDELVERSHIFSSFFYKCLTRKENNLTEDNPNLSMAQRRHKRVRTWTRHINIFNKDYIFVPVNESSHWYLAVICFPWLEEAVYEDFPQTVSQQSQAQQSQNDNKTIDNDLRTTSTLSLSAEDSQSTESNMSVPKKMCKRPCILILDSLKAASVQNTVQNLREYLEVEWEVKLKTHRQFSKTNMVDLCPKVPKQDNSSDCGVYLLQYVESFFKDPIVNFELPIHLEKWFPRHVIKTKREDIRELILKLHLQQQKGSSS

[2] = target: T3, Sentrin-specific protease 6 (Homo sapiens, UniProt Q9GZR1); format: functional;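 also: Luminescence-based dose-response confirmatory assay of SENP6 inhibition, following up an ultra-high-throughput screen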
T3 sequence (Q9GZR1 whole entry): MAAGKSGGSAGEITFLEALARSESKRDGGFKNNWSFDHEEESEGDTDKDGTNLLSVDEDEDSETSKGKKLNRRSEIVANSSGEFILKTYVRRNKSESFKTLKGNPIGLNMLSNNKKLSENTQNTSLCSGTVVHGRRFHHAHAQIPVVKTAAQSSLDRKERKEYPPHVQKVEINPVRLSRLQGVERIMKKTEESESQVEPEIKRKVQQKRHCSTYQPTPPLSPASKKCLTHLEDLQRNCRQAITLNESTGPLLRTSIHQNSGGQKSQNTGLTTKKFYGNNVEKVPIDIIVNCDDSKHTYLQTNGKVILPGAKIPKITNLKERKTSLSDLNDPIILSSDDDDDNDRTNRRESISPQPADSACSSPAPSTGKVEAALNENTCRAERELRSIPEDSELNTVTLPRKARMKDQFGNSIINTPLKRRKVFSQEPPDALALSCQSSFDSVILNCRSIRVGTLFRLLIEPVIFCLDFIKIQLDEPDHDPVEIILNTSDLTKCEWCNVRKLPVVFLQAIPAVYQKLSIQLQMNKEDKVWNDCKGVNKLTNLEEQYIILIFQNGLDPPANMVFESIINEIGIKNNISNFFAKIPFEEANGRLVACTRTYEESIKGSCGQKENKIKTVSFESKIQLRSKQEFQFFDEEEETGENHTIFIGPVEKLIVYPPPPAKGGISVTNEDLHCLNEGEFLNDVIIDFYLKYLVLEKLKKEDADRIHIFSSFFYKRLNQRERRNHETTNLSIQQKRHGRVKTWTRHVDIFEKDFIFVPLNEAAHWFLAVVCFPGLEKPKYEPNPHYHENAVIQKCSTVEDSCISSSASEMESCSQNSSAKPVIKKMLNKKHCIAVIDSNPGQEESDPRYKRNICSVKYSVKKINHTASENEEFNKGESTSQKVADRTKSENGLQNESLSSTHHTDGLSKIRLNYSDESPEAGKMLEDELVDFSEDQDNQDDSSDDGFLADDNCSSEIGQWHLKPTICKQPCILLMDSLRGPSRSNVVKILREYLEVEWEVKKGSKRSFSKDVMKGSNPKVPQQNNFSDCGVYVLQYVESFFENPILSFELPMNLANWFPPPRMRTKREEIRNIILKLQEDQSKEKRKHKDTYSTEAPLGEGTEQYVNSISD

[3] = target: T4, Sentrin-specific protease 8 (Homo sapiens, UniProt Q96LD8); format: functional;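 also: luminescence read-out of SENP8 inhibition, dose-response confirmation following an ultra-high-throughput screen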
T4 sequence (Q96LD8 whole entry): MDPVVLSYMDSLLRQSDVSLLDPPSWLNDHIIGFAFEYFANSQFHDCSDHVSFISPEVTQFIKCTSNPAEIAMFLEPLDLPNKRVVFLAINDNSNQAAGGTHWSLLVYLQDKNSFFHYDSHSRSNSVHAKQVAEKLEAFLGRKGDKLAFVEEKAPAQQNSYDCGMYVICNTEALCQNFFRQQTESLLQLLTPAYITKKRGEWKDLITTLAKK

[4] = target: T5, Short transient receptor potential channel 4 (Mus musculus, UniProt Q9QUQ5); assay: mouse TRPC4 channel activators, dose response, cell-based, HEK293 TRPC4/mu-opioid, Fluo-4 calcium (AID 434937); format: functional
T5 sequence (Q9QUQ5 whole entry): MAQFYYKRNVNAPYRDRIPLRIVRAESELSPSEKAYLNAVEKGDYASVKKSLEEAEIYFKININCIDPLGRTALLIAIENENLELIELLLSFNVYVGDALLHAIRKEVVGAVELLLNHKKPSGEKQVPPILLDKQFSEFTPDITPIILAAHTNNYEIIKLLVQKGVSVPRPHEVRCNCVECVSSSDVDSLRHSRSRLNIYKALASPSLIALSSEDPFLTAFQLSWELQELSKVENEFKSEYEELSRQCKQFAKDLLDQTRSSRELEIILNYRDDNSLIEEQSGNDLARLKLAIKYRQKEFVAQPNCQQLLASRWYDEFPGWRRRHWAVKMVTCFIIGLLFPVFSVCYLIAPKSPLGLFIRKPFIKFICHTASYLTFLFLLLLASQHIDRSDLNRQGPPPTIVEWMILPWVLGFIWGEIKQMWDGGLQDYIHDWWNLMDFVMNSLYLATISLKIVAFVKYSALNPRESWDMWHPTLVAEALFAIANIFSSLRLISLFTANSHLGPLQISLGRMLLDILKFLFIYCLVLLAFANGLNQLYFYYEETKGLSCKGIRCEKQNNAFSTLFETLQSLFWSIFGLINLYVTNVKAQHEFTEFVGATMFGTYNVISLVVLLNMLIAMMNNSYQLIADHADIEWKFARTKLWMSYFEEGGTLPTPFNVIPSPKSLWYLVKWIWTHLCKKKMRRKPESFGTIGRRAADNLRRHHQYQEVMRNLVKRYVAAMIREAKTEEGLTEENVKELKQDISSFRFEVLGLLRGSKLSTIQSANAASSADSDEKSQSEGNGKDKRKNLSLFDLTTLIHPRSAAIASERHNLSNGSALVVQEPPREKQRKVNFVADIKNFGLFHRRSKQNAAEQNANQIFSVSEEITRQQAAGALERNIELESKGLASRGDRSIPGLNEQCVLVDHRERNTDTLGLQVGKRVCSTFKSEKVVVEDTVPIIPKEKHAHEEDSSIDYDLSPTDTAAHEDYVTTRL

[5] = target: DNA dC->dU-editing enzyme APOBEC-3G (Homo sapiens, UniProt Q9HC16); assay: APOBEC3G deaminase inhibitors, SAR follow-up, biochemical, fluorescence, single-stranded DNA substrate (AID 602136); format: functional; conditions: read-out: IC50_Mean
Sequence of DNA dC->dU-editing enzyme APOBEC-3G (Q9HC16 whole entry): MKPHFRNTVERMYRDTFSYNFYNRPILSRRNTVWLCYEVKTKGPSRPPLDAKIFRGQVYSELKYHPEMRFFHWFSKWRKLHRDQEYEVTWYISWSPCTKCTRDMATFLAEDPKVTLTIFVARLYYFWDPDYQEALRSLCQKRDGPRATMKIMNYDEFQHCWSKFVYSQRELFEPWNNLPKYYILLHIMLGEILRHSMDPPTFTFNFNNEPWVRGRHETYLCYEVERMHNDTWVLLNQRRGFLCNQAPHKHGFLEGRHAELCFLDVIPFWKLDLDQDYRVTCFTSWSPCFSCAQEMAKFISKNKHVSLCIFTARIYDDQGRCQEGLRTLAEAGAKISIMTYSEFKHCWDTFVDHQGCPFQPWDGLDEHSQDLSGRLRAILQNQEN

[6] = target: DNA dC->dU-editing enzyme APOBEC-3A (Homo sapiens, UniProt P31941); assay: SAR analysis of small molecule inhibitors of APOBEC3A DNA Deaminase via a fluorescence-based single-stranded DNA deaminase assay.; format: functional; conditions: read-out: IC50_Mean
Sequence of DNA dC->dU-editing enzyme APOBEC-3A (P31941 whole entry): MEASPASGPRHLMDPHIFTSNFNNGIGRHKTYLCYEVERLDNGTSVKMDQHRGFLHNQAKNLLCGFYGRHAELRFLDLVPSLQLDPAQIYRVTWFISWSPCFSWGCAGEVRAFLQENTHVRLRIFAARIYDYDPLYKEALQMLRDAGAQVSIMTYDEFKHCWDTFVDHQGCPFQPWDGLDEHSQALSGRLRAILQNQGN

[7] = microbe, parasite or virus in culture; format: functional; conditions: Mycobacterium tuberculosis
[8] = Luminescence Cell-Based Dose Retest to Confirm Inhibitors of Cancer Stem Cells. [Related pubchem assays (depositor defined):AID2717, AID2721]; format: functional; conditions: Homo sapiens
CHO = assay: cytotoxicity in TLR9-MyD88 CHO cells, dose response, cytotoxicity control for TLR9-MyD88 binding inhibitor project, cell-based, luminescence (AID 588339); format: functional, hamster; conditions: Cricetulus griseus;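 also: CHO cells stably coexpressing TLR9 and MyD88 fusions from primary screen; compound exposure lasted 48 hours before viability readout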
Beta Lactamase = Beta Lactamase (Pseudomonas aeruginosa, UniProt Q932Y6); assay: beta-lactamase reporter inhibitor potency, dose response, artefact control for TLR9-MyD88 binding inhibitor project, BLA reporter cells, FRET fluorescence (AID 588341); format: cell-based;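 also: cell based assay in CHO-K1 cells stably expressing beta-lactamase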
Sequence of Beta Lactamase (Q932Y6 whole entry): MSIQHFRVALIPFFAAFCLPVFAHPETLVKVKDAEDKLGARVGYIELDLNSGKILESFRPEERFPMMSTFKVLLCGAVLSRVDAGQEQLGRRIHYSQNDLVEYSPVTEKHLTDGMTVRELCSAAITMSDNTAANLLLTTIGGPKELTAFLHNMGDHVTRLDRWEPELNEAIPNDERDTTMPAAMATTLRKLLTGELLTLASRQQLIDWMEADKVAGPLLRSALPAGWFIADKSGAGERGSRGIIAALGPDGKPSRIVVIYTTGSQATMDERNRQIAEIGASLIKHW

INS1 = assay: beta cell apoptosis inhibitors, cytokine rescue, dose response, luminescence, retest (AID 449756); format: functional, cell-based; conditions: Rattus norvegicus;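 also: cell death triggered by IL-1 beta plus TNF-alpha plus IFN-gamma mixture; protective hits raise ATP signal compared with cytokine alone wells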
Genome polyprotein = Genome polyprotein (dengue virus type 2, UniProt P29990); assay: Dengue-2 NS5 methyltransferase inhibitors, primary screen, biochemical, confirmation dose response (AID 588689); format: functional
Sequence of Genome polyprotein (P29990 2492-3391 limits assumed): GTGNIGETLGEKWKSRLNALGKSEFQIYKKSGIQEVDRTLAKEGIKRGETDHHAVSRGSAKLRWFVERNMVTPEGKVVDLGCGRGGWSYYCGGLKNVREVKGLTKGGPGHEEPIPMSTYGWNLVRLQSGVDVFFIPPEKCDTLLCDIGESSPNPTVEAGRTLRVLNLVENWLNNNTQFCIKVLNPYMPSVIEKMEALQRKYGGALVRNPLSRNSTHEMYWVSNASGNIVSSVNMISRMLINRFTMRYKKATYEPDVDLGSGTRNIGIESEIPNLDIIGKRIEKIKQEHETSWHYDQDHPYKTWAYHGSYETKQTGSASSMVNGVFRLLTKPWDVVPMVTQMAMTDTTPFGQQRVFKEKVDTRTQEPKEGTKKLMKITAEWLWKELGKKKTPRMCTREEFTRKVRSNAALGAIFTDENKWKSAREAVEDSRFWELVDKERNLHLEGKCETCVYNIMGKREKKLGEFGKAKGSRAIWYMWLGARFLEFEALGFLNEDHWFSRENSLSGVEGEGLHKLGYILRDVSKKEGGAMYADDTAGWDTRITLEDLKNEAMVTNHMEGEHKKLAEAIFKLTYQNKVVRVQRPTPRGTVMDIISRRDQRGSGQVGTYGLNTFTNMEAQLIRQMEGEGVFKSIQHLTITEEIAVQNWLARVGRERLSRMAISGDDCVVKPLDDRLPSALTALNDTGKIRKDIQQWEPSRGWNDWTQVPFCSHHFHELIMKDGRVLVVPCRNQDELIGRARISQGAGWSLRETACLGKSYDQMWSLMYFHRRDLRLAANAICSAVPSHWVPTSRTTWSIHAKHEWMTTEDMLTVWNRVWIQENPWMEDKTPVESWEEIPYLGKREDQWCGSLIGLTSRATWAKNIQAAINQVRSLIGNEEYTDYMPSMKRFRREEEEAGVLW

[9] = target: T5, Short transient receptor potential channel 4; assay: mouse TRPC4 channel inhibitors, dose response, cell-based, HEK293 TRPC4/mu-opioid, Fluo-4 calcium (AID 434942); format: functional;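 also: potency of inhibitors blocking the TRPC4 calcium response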
Cysteine protease ATG4B = Cysteine protease ATG4B (Homo sapiens, UniProt Q9Y4P1); format: functional;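 also: Fluorescence-based dose-response confirmation assay measuring inhibition of ATG4B activity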
Sequence of Cysteine protease ATG4B (Q9Y4P1 whole entry): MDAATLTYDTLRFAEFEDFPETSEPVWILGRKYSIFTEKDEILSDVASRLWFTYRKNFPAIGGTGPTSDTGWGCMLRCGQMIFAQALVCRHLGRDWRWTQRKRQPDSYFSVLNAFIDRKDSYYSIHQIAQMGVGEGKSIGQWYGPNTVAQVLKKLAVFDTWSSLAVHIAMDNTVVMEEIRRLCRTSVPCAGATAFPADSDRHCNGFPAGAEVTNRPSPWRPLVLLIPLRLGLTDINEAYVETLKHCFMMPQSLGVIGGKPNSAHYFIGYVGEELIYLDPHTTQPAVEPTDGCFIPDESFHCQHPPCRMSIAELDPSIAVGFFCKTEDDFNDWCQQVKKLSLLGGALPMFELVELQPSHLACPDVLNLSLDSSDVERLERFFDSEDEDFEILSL

Phospholipase A2 = Phospholipase A2 (Homo sapiens, UniProt P04054); format: functional;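 also: confirmatory dose-response counterscreen on phospholipase A2, testing hits that came from an ultra-high-throughput screen for ATG4B inhibitors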
Sequence of Phospholipase A2 (P04054 whole entry): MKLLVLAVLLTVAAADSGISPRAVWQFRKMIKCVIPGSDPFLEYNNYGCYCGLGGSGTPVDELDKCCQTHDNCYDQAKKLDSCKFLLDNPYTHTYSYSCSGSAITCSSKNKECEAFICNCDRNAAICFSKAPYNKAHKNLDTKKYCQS

[10] = target: T6, Neuropeptides B/W receptor type 1 (Homo sapiens, UniProt P48145); assay: GPR7 antagonist potency, late-stage follow-up, cell-based, fluorescence, dose response, set 5 (AID 588566); format: functional
T6 sequence (P48145 whole entry): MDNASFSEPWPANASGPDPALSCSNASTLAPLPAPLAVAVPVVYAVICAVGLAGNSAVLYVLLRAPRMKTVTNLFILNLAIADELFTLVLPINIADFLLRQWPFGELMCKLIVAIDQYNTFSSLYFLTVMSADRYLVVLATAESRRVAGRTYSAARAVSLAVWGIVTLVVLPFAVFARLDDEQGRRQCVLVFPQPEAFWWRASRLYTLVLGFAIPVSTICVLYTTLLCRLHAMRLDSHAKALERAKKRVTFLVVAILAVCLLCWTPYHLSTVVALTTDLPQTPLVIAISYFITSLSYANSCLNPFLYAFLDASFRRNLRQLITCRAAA

[11] = target: Melanin-concentrating hormone receptor 1 (Homo sapiens, UniProt Q99705); assay: Late-stage fluorescence-based counterscreen for antagonists of the G-protein coupled receptor 7 (GPR7): cell-based dose response assay to identify antagonists of the melanin-concentrating hormone receptor 1 (MCHR1) Set 5.; format: functional
Sequence of Melanin-concentrating hormone receptor 1 (Q99705 whole entry): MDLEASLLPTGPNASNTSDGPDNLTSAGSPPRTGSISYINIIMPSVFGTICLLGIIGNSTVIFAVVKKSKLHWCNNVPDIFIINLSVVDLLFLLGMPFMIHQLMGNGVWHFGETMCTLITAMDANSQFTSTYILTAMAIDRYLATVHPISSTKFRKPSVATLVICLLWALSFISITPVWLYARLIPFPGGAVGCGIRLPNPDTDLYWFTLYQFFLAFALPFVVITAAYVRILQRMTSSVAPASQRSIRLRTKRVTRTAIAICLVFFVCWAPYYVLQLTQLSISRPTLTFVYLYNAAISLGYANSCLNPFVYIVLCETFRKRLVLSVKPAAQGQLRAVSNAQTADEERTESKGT

[12] = target: Protein disulfide-isomerase (Homo sapiens, UniProt P07237); assay: PDI inhibitors, insulin aggregation turbidity, dose response, biochemical, absorbance, cherry-picked samples (AID 602350); format: functional
Sequence of Protein disulfide-isomerase (P07237 whole entry): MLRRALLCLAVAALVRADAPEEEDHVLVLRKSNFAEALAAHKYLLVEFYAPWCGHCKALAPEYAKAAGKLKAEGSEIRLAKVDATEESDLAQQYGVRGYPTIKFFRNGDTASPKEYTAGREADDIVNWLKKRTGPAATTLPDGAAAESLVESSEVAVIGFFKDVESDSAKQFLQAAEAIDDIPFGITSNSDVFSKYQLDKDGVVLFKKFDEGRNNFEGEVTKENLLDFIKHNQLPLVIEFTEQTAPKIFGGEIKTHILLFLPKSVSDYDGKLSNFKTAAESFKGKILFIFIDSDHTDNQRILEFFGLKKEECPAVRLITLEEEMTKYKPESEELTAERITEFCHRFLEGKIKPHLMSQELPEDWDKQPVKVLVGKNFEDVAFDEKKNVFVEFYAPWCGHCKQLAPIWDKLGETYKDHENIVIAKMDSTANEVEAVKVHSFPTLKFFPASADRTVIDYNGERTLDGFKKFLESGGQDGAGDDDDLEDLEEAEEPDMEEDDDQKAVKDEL

[13] = system: Streptococcus sp. 'group A'; assay: growth inhibition of control SK(-) GAS strain, dose response, counter-screen for streptokinase expression inhibitor project, luminescence, kanamycin, BacTiterGlo, confirmation (AID 1900); format: functional, organism-based
[14] = inhibitors of intracellular T. cruzi replication, confirmation, NIH3T3 host cells, beta-gal luminescence (AID 2044); format: functional, cell-based;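 also: intracellular parasites grown in NIH/3T3 mouse fibroblasts as host cells; luminescent beta-galactosidase reporter signal from transgenic T. cruzi replicating inside host cells; inhibitors lower the luminescence signal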
[15] = cytotoxicity toward NIH3T3 fibroblasts, dose response, counter-screen, cell-based, ATP luminescence, mouse fibroblasts (AID 2010); format: functional;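 also: cells exposed to compound for about 90 hours before reading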
Streptococcus = assay: Group A Streptococcus viability loss, dose response, counter-screen for streptokinase expression inhibitor project, luminescence, BacTiterGlo (AID 1915); format: functional, organism-based;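 also: potency for reduction of bacterial viability or growth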
[16] = target: Heat shock protein HSP 90-alpha (Homo sapiens, UniProt P07900); format: functional, organism-based

## O=C(Nc1ccc(Br)cn1)c1ccc(Br)s1
Caspase-3
  IC50: 20.4 µM (active)
[1]
  IC50: 6.53 µM (active)
[2]
  IC50: > 100 µM (inactive)
[3]
  IC50: > 100 µM (inactive)

## COc1ccc2c(Cl)c(-c3nnc4n3CCCCC4)sc2c1
[4]
  EC50: 1.88 µM (active)
[5]
  IC50: > 99 µM (inactive)
[6]
  IC50: > 99 µM (inactive)

## N#Cc1c([N+](=O)[O-])cc([N+](=O)[O-])cc1S(=O)(=O)Cc1ccccc1
[7]
  CC50: > 40 µM (active)
[8]
  AC50: 1.61 µM (active)
CHO
  IC50: 1.6 µM (active)
Beta Lactamase
  IC50: 12.1 µM (inactive)
INS1
  AC50: 3.59 µM (active)
Genome polyprotein
  IC50: > 100 µM (active)

## O=C(O)c1cc(NN=C2c3ccccc3-c3ccccc32)ccc1Cl
[9]
  EC50: 2.99 µM (active)
Cysteine protease ATG4B
  IC50: 9.33 µM (active)
Phospholipase A2
  IC50: 9.27 µM (active)

## COc1cccc(Oc2c(Cl)cnn(C3c4ccccc4-c4ccccc43)c2=O)c1
[10]
  IC50: 9.69 µM (active)
[11]
  IC50: > 20 µM (inactive)

## Cc1cccn2c(CN(C)C3CCCc4ccccc43)c(C(=O)N3CCOCC3)nc12 (stereo not drawn)
[12]
  AC50: 19.5 µM (active)

## O=[N+]([O-])c1ccc(N2N=C(c3ccccc3)CC2c2ccccc2O)cc1 (stereo not drawn)
[13]
  EC50: 2.31 µM (active)
[14]
  EC50: 1.45 µM (active)
[15]
  EC50: > 60 µM (not active)
Streptococcus
  EC50: 3.46 µM (active)
[8]
  AC50: 2.65 µM (active)
CHO
  IC50: 28.5 µM (inactive)
[16]
  AC50: 3.31 µM (active)
Beta Lactamase
  IC50: 4.58 µM (active)

## Cc1nc(Cc2nnc(SCC(=O)c3cc(C)n(Cc4ccccc4)c3C)o2)cs1
[5]
  IC50: > 99 µM (inactive)
[6]
  IC50: > 99 µM (inactive)

## O=C(CSc1nnc(COc2ccc(Cl)cc2)n1Cc1ccco1)c1ccccc1F
Cysteine protease ATG4B
  IC50: 2.36 µM (active)
Phospholipase A2
  IC50: 55.7 µM (inactive)

## O=C(C1CCCCN1Cc1c2ccccc2cc2ccccc12)N1CCN(c2ccc([N+](=O)[O-])cc2)CC1 (stereo not drawn)
[10]
  IC50: > 20 µM (inactive)
[11]
  IC50: > 20 µM (inactive)
